# From the supplement of paper PMC3974653
# Structures can show the parent of a compound that is named as a salt.
# Test system: MTT (mouse pheochromocytoma)
# Test: IC50 of cell viability (ATP content)
# Details: (24 or 48 h)
# How it was run: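 MTT mouse pheochromocytoma cells (5 µl of 200,000 cells/ml per well, white 1536-well plates, DMEM with 5% FBS and 1% horse serum) were cultured overnight at 37°C, 5% CO2. They then received 23 nl library compound in DMSO by pintool at 8 concentrations (final 0.5 nM to 46 µM) for 24 or 48 hrs. CellTiter-Glo ATP luminescence was read after 15 minutes. Signals were normalised to positive-control (100% inhibition) and DMSO (0%) wells, and IC50 came from a four-parameter logistic fit.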
row,Structure (SMILES),IC50 of cell viability
1,CCC/C=C/C=C/C(=O)OC1/C(=C/C(=O)OC)CC2CC(C(C)O)OC(=O)CC(O)CC3CC(OC(C)=O)C(C)(C)C(O)(CC4C/C(=C/C(=O)OC)CC(C=CC(C)(C)C1(O)O2)O4)O3 (centres undefined) [BRYOSTATIN-1],> 46 µM
2,CNC[C@@H]1CC[C@@H](N)[C@@H](O[C@H]2[C@H](O)[C@@H](O[C@H]3OC[C@](C)(O)[C@H](NC)[C@H]3O)[C@H](N)C[C@@H]2N)O1 [Micronomicin sulfate],> 46 µM
3,CC(C)C[C@@H](N)C(=O)O [D-LEUCINE],> 46 µM
4,Oc1ccnc(S)n1 [2-THIOURACIL],> 46 µM
5,"O=C(O)CCCOc1ccc(Cl)cc1Cl [4-(2,4-Dichlorophenoxy)butyric acid]",> 46 µM
6,Clc1ccc(CC[C@H](Cn2ccnc2)Sc2c(Cl)cccc2Cl)cc1 [Butoconazole nitrate],> 46 µM
7,CCNC(=O)/C=C/c1cccc(Br)c1 [CINROMIDUM],> 46 µM
8,CCN(CC)CCOC(=O)c1ccc(N)cc1 [Procaine hydrochloride],> 46 µM
9,CC(=O)O[C@@H](C)C[N+](C)(C)C [Methacholine chloride],> 46 µM
10,CC(C)CCCC(C)N (centres undefined) [OCTODRINUM],> 46 µM
11,OCc1ccccn1 [Piconol],> 46 µM
12,C[C@]12C=CC(=O)C=C1CC[C@@H]1C2CC[C@]2(C)OC(=O)CCC12 (some centres undefined) [Testolactone],> 46 µM
13,C=C(Nc1ccc(OCC)cc1)Nc1ccc(OCC)cc1 [Phenacaine hydrochloride],> 46 µM
14,CCN(CC)CCOC(=O)c1cccnc1.O.O=C(O)CC(O)(CC(=O)O)C(=O)O [NICAMETATE CITRATE],> 46 µM
15,[O-]/[N+](=N/c1ccccc1)c1ccccc1 [Azoxybenzene],> 46 µM
16,CN[C@@H](C)[C@H]1CC[C@@H](N)[C@H](O[C@@H]2[C@@H](O)[C@H](O[C@@H]3OC[C@@](C)(O)[C@@H](NC)[C@H]3O)[C@H](N)C[C@@H]2N)O1.CN[C@H]1[C@@H](O)[C@H](O[C@H]2[C@H](O)[C@@H](O[C@@H]3O[C@@H](CN)CC[C@H]3N)[C@@H](N)C[C@H]2N)OC[C@@]1(C)O.CN[C@H]1[C@@H](O)[C@H](O[C@H]2[C@H](O)[C@@H](O[C@@H]3O[C@@H]([C@H](C)N)CC[C@H]3N)[C@@H](N)C[C@H]2N)OC[C@@]1(C)O.O=[S+]([O-])(O)O [Gentamicine sulfate],> 46 µM

row,Structure (SMILES),IC50 of cell viability
1,CCN1\C=C(\C(O)=O)C(=O)C2=C1C=C3OCOC3=C2 [OXOLINIC ACID],> 46 µM
2,Nc1c(Cl)c(Cl)c(Cl)c(Cl)c1Cl [Pentachloroaniline],> 46 µM
3,"CC12CCC3C(CC\C4=C(/O)C(=O)CCC34C)C1CCC2=O (centres undefined) [4-Androsten-4-ol-3,17-dione]",> 46 µM
4,CC(=O)Nc1cc([As](=O)(O)O)ccc1O [ACETARSOL],> 46 µM
5,COc1cc2c(cc1OC)[C@@H](Cc1cc(OC)c(OC)c(OC)c1)[N@+](C)(CCCOC(=O)CC/C=C/CCC(=O)OCCC[N@+]1(C)CCc3cc(OC)c(OC)cc3[C@H]1Cc1cc(OC)c(OC)c(OC)c1)CC2 [Mivacurium],> 46 µM
6,CN(C)CCOC(c1ccc(Cl)cc1)c1ccccn1 (centres undefined) [Carbinoxamine maleate],> 46 µM
7,CCC(C(N)=O)N1CCCC1=O (centres undefined) [Etiracetam],> 46 µM
8,NC(Cc1ccc(Cl)cc1)C(=O)O (centres undefined) [p-Chlorophenylalanine],> 46 µM
9,CC([C@H](O)c1ccccc1)N(C)C (stereo partly drawn) [N-METHYL (-)EPHEDRINE],> 46 µM
10,CCCCCCOC(=O)c1cccnc1 [HEXYL NICOTINATE],> 46 µM
11,N[C@@H](CSCCCO)C(=O)O [FUDOSTEINE],> 46 µM
12,CCCCCCCCCCCCCCCC(=O)OCC(COC(=O)CCCCCCCCCCCCCCC)OC(=O)CCCCCCCCCCCCCCC [Tripalmitin],> 46 µM
13,COC\1=C\C=C/2[C@H]3CC4=C5C(=C(OC)C=C4)OC1[C@@]25CCN3C (some centres undefined) [Thebaine],> 46 µM
14,CC1=NN=C2C\N=C(C3=CC=CC=C3Cl)/C4=C(SC(=C4)Br)[N]12 [Brotizolam],> 46 µM
15,NCC1O[C@@H](O[C@@H]2C(O)[C@H](O[C@H]3OC(CO)C(O)C(N)C3O)[C@@H](N)C[C@H]2N)C(N)C(O)C1O.O=[S+]([O-])(O)O (some centres undefined) [BEKANAMYCIN SULFATE],> 46 µM
16,NCCc1c[nH]cn1 [HISTAMINE],> 46 µM

# The remaining lines, values ahead:
row,IC50 of cell viability,Structure (SMILES)
1,> 46 µM,CC(=O)Oc1cc2c(s1)CCN(C(C(=O)C1CC1)c1ccccc1F)C2 (centres undefined) [Prasugrel Hydrochloride]
2,> 46 µM,CN1CCCN=C1/C=C\c1cccs1.O=C(O)[C@@H](O)[C@@H](O)C(=O)O [Pyrantel tartrate]
3,> 46 µM,C=C(c1ccc(C(=O)O)cc1)c1cc2c(cc1C)C(C)(C)CCC2(C)C [BEXAROTENE]
4,> 46 µM,Cc1ccccc1N1C(=O)c2cc(N)ccc2N/C1=C\F [AFLOQUALONE]
5,> 46 µM,OC(CN1CCCCC1)c1cc(-c2ccccc2)on1 (centres undefined)
6,> 46 µM,[Na+].CO[C@H]1[C@@H](OC(N)=O)[C@@H](O)[C@H](OC2=C(C)C3=C(C=C2)\C(=C(\NC(=O)C4=CC(=C([O-])C=C4)CC=C(C)C)C(=O)O3)O)OC1(C)C [Novobiocin sodium salt]
7,> 46 µM,CN[C@H]1[C@@H](O)[C@@H](OC[C@@]1(C)O)O[C@@H]2[C@H](N)C[C@H](N)[C@H](O[C@@H]3O\C(=C/C[C@H]3N)CN)[C@H]2O [Sisomicin sulfate]
8,> 46 µM,C[C@@H](C(=O)O)c1ccc(C(=O)c2ccccc2)s1 [Tiaprofenic acid]
9,> 46 µM,CCN1CCN(CC1)C2=CC3=C(C=C2F)C(=O)C(=C/N3C4CC4)\C(O)=O [ENROFLOXACIN]
10,> 46 µM,O=c1[nH]c2cc(C(F)(F)F)c(N3CCOCC3)cc2n(CP(=O)(O)O)c1=O [FANAPANELUM]
11,> 46 µM,CC(=O)[C@@]1(O)CC[C@H]2[C@@H]3C=C(Cl)C4=CC(=O)CC[C@]4(C)[C@H]3CC[C@@]21C [Chlormadinone]
12,> 46 µM,CC(=O)N(CC(O)CO)c1c(I)c(C(=O)NCC(O)CO)c(I)c(C(=O)NCC(O)CO)c1I (centres undefined) [Iohexol]
13,> 46 µM,COc1ccc(/C=N/NC(=O)c2ccncc2)c(C(=O)O)c1OC [Opiniazida]
14,> 46 µM,C=C(CC)C(=O)c1ccc(OCC(=O)O)c(Cl)c1Cl [Ethacrynic acid]
15,> 46 µM,COC(=O)\C1=C(/C)N\C(=C(/[C@H]1C2=CC=CC3=NON=C23)C(=O)OC(C)C)C [Isradipine]
16,> 46 µM,CC(=O)O[C@@]12CO[C@@H]1C[C@H](O)[C@@]1(C)C(=O)[C@H](O)C3=C(C)[C@@H](OC(=O)C(O)[C@@H](NC(=O)OC(C)(C)C)c4ccccc4)C[C@@](O)([C@@H](OC(=O)c4ccccc4)[C@H]21)C3(C)C (some centres undefined) [DOCETAXEL]

row,IC50 of cell viability,Structure (SMILES)
1,> 46 µM,CC(=O)Oc1c(C)c(C)c2c(c1C)CC[C@@](C)(CCC[C@H](C)CCC[C@H](C)CCCC(C)C)O2 [Vitamin E acetate]
2,> 46 µM,O=C(O)c1cc(/N=N/c2ccc([S+](=O)([O-])Nc3ccccn3)cc2)ccc1O [Salicylazosulfapyridine]
3,> 46 µM,CCCCCC(=O)O[C@@]1(CC[C@H]2[C@@H]3CCC/4=C/C(=O)CC[C@]4(C)[C@H]3CC[C@]12C)C(C)=O [17a-Hydroxyprogesterone hexanoate]
4,> 46 µM,CC(=O)Nc1ccc(OC(=O)c2ccccc2OC(C)=O)cc1 [BENORILATE]
5,> 46 µM,NC(=O)C(c1ccccc1)(c1ccccc1)[C@@H]1CCN(CCc2ccc3c(c2)CCO3)C1 [DARIFENACIN HYDROBROMIDE]
6,> 46 µM,NC1=NCC2c3ccccc3Cc3ccccc3N12 (centres undefined) [EPINASTINE HYDROCHLORIDE]
7,> 46 µM,CC(=O)C1CCC2C3CC\C4=C\C(=O)CCC4(C)C3CCC12C (centres undefined) [Progestin]
8,> 46 µM,CN1\C(=C(\O)C2=C(C=CS2)[S+]1([O-])=O)C(=O)NC3=CC=CC=N3 [Tenoxicam]
9,> 46 µM,CCCN[C@H]1CCc2nc(N)sc2C1 [PRAMIPEXOLE DIHYDROCHLORIDE]
10,> 46 µM,CCC1OC(=O)C[C@H](O)C(C)[C@@H](O[C@@H]2OC(C)C(O)[C@H](N(C)C)C2O)C(CCN2CC(C)CC(C)C2)CC(C)C(=O)/C=C/C(C)=C\[C@@H]1COC1OC(C)C(O)C(OC)C1OC (some centres undefined) [TILMICOSIN]
11,> 46 µM,C\C1=C(\[N@]2[C@@H](SC1)[C@H](NC(=O)[C@@H](N)C3=CC=C(O)C=C3)C2=O)C(O)=O [Cefadroxil]
12,> 46 µM,C\C1=C(\C=C(\C#N)C(=O)N1)C2=CC=NC=C2 [Milrinone]
13,> 46 µM,CC(=O)Nc1ccc([S+](=O)([O-])Nc2cc(C)on2)cc1 [N-Acetyl Sulfamethoxazole]
14,> 46 µM,CC1(C)O[C@@H]2C[C@@H]3[C@@H]4C[C@@H](F)\C5=C\C(=O)\C=C/[C@]5(C)[C@H]4[C@H](O)C[C@@]3(C)[C@]2(O1)C(=O)CO [Flunisolide]
15,> 46 µM,O=C(CCN1CCN2CCCC2C1)N1c2ccccc2Sc2ccc(Cl)cc21 (centres undefined) [Azaclorzina]
16,> 46 µM,COc1cc(C(=O)NCCCCCC(=O)O)cc(OC)c1OC [ACIDUM CAPOBENICUM]
